Assay results published in patent US20170281611A1, “QUINOLINES AND THEIR USE FOR TREATING ENDOPLASMIC RETICULUM STRESS-CAUSED DISEASES” (EIGER BIOPHARMACEUTICALS, INC., priority 2014, published 2017).

Legend:
Assay type in all cases: in vivo
[1] = system: 6-OHDA lesioned Wistar rats; test: Rat unilateral 6-OHDA model of Parkinson's disease, initiation time (IT) test; conditions: D11, L-DOPA 8 mg/kg with benserazide 12.5 mg/kg IP once; 6-OHDA/Vehicle 37.88±6.10 sec
Protocol: (§1) Fifty adult male Wistar rats were used. The rats from different groups (G1 to G5) were randomized. At the beginning of the study, the rats were about 5 weeks old and naive to previous administration of any drug.
(§2) A stereotaxic injection of 6-OHDA (G2 to G5) or saline (G1: sham group) was performed to induce a unilateral dopaminergic lesion on day 0 (D0). Surgery was performed on D0 under ketamine (50 mg/kg) and xylazine (10 mg/kg). The rats of G2 to G5 received a unilateral injection of 6-OHDA (6 μL) in the left substantia nigra pars compacta. Jouve et al., J. Neurosci. 2010, 30, 9919-9928. The rats of the G1 sham group were injected with saline. During surgery, local analgesia was achieved using subcutaneous injections of lidocaine. At the end of surgery, the rats were treated with buprenorphine (0.05 mg/kg, S.C.).
The IT test was performed both before the 6-OHDA lesion induction on D0 and on day 11 (D11) after the 6-OHDA lesion induction. Around six days (D−6) before the 6-OHDA lesion induction, the IT test was performed eight consecutive times for each limb of each rat to obtain baseline values. On D11, the IT test was performed one hour after the rats were dosed. For every test, only one of the two forelimbs of each rat was left free to move and the time that is necessary to initiate the movement toward a plane surface was recorded using 180 sec as break-off point. […]

[2] = system: 6-OHDA lesioned Wistar rats; test: Rat unilateral 6-OHDA model of Parkinson's disease, stepping test; conditions: D11, L-DOPA 8 mg/kg with benserazide 12.5 mg/kg IP once; 6-OHDA/Vehicle 1.19±0.24 steps
Protocol: as §1, §2
The stepping test was performed after IT test, both before the 6-OHDA lesion induction on D0 and on D11. Around D−6, the stepping test was performed eight consecutive times for the right paw of each animal to obtain baseline values. On D11, the stepping test was performed one hour after the rats were dosed. Each rat was hold by an experimenter and only one of the two forelimbs was left free to move above a plane surface and the other was held with the paw touching the table. The rats were then to be moved slowly forward by the experimenter. The number of adjusting steps was countered for the right paw. Olsson et al., J. Neurosci. 1995, 15, 3863-3875.
L-DOPA and benserazide (a peripheric DOPA decarboxylase inhibitor) were prepared together as a single solution containing 0.9% NaCl and 0.1% ascorbic acid.
All the dosings were given via the IP route, once daily, Sunday excluded.

[3] = system: 6-OHDA lesioned Wistar rats; test: Rat unilateral 6-OHDA model of Parkinson's disease, cylinder test; conditions: D11, L-DOPA 8 mg/kg with benserazide 12.5 mg/kg IP once; 6-OHDA/Vehicle 23.17±6.45
Protocol: as §1, §2
The cylinder test was performed only on D11, after completion of the IT and stepping tests, and 1.5 hours after the rats were dosed. The rats were placed in a Plexiglas cylinder and immediately videotaped for 15 min. During this time, the number of contacts made on the cylinder wall with the ipsilateral, contralateral, and two paws simultaneously (double contacts) were recorded and then expressed as a percentage of the total number of contacts. Lundblad et al., Eur. J. Neurosci. 2002, 15, 120-132; Jouve et al., J. Neurosci. 2010, 30, 9919-9928. […]

N[C@@H](Cc1ccc(O)c(O)c1)C(=O)O [L-DOPA, reference compound]
initiation time [1]: 1.28 ± 0.21 s
number of adjusting steps [2]: 10.05±0.56 steps
percentage of double contacts [3]: 46.67±4.60 double contacts
